Data: US20170008928A1, “NOVEL PEPTIDES AND PEPTIDE DERIVATIVES AND USES THEREOF” (Novo Nordisk A/S, priority 2015, published 2017)
pEC50, pIC50: −log10 of the molar value. Like-named read-outs stand apart in the source and are kept apart here. Starred links: 1 amine or outer side, 2 acyl side, 3 side chain; linkers in the order of their positions; H or OH if unused. Non-standard residues stand in square brackets, D forms with d. Residues, ends and D or L forms follow the SMILES beside them. *: point of attachment. Phe(4-CH2SO3H) = N[C@@H](Cc1ccc(CS(=O)(=O)O)cc1)C(=O)O; C20 diacid = O=C(O)CCCCCCCCCCCCCCCCCCC(=O)*; sY = N[C@@H](Cc1ccc(OS(=O)(=O)O)cc1)C(=O)O; C18 diacid = O=C(O)CCCCCCCCCCCCCCCCC(=O)*; γGlu = O=C(O)[C@H](CCC(=O)[*:2])N[*:1]; βAsp = O=C(O)[C@H](CC(=O)[*:2])N[*:1]; NMeF = CN[C@@H](Cc1ccccc1)C(=O)O; dNMeD = CN[C@H](CC(=O)O)C(=O)O; Nle = CCCC[C@H](N)C(=O)O; AEEA = NCCOCCOCC(=O)O

How the values were obtained:
[1] = target: T1, human cholecystokinin-2 receptor (CCK-2R) (Homo sapiens, UniProt P32239); test: In vitro receptor binding to CCK-2R, SPA displacement of [125I]-CCK-8s from plasma membranes
T1 construct: host or cells: 1321-N1 cells (plasma membranes prepared by Evotec AG Hamburg)
T1 sequence (P32239 1-447): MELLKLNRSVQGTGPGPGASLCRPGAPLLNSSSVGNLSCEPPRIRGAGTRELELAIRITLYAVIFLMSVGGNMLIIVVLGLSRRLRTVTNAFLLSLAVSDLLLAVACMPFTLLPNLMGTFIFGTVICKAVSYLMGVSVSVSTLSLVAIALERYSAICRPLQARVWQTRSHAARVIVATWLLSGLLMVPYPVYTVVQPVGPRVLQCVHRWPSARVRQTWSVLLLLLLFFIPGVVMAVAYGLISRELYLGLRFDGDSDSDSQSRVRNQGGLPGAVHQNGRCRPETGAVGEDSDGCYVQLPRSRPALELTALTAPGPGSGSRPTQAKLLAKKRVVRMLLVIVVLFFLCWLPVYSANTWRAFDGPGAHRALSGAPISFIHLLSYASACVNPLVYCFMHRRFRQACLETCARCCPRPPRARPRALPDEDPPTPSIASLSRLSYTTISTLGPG
Method: The in vitro binding affinity is a measure of the strength of attraction between a receptor and its ligand.
Displacement of radio ligand was measured as reduction in light emission from SPA beads.
The cells used in these assays were 1321-N1 cells stably expressing the CCK-1R or the CCK-2R (Perkin Elmer product numbers ES-530-A and ES-531-A, respectively see www.perkinelmer.com/Catalog/Product/ID/ES-530-A or -ES-531-A, respectively).
The cells were cultured in an incubator (95% RH (relative humidity), 5% (of standard atmospheric pressure) CO2, 37° C.) in cell culture medium (DMEM (Lonza catalogue BE-12-604F/U1), with 10% (v/v) Foetal Calf Serum (FCS, Gibco catalogue 16140-071), 1% (w/w) Sodium pyruvate (Gibco catalogue 11360-039), 500 μg/ml Geneticin® (G418) (Gibco catalogue 10131-027), 25 μg/ml Zeocin™ (Invitrogen catalogue R250-05), 1% (w/w) Pen/Strep (Gibco catalogue 15140-122)).
Plasma membranes were prepared by Evotec AG Hamburg by use of the ParrBomb (#4635, Parr Instrument Company). Cells were lysed with a lysis buffer (50 mM Tris, 2.5 mM EDTA, pH7) with added protease inhibitors (Complete Proteaseinhibitors EDTA-free (#05056489001, Roche), 1 tablet per 50 mL lysis buffer). The membrane fraction was separated by centrifugation. First, the cell lysate was centrifuged at 1000×g for 10 minutes at 4° C. The pellet was discarded and the supernatant was then centrifuged at 100.000×g for 30 minutes at 4° C. The supernatant was discarded and the pellet was re-suspended in 1 ml/5×10^8 cells ice cold membrane buffer (50 mM Tris, 320 mM Sucrose and Complete Proteaseinhibitors EDTA-free (#05056489001, Roche); pH7.4) and homogenised with dounce homogeniser. The protein concentration was determined using the Pierce™ BCA Protein Assay Kit according to kit manual, and the membrane preparation was adjust to the desired protein concentration with membrane buffer and aliquoted into pre-cooled tubes, snap-frozen in liquid nitrogen, and stored at −80° C.
CCK receptor binding assays were performed in 96-well Optiplates (Cat #6005290, PerkinElmer, Waltham, Mass., USA) in a total volume of 200 μl per well. CCK derivatives in 80% DMSO stock solutions of 800 μM were serially diluted […] in assay buffer (50 mM Tris/HCl, 4.5 mM MgCl2, […], 0.02% Tween 20, 0.25% ovalbumin, 0.1% pluronic F-68, pH 7.4) to final assay concentrations ranging from 10^−5 M (ten μM) to 10^−12 M (one pM).
Fifty μl of reference or test compounds were added to the Optiplates (using technical duplicates, i.e. two wells of each sample, one data point being the average of two wells), followed by addition of 150 μl of the mixture of SPA bead, radio ligand, and plasma membrane. The plates were sealed and incubated in the dark at +22° C. for 2 hours on a IKA MTS plate shaker (IKA-Werke D-79219 Staufen) set at 300 rpm and thereafter centrifuged at 1500 rpm for 10 minutes in a Heraeus Multifuge 3s centrifuge. SPA bead light emission was measured in a TopCount NXT (PerkinElmer) for 2 min/well after a delay of 60 min.
As a measure of compound affinity, calculations were performed in order to determine the half maximal inhibitory concentration (the IC50 value).
The data from the TopCounter were given as counts per minute (CPM). The CPM was plotted as a function of the concentration of compound. Dose-response curves were obtained, and IC50 values were calculated, by a nonlinear three-parameter logistic equation (log(agonist) vs response) with hillslope=−1, and shared top and bottom using the software programme GraphPad Prism v 6.0 (Graph Pad software, La Jolla, Calif., USA). The highest dose tested was 10^−5 M (1×10^7 pM).
The preference of a specific compound for the CCK-1 receptor, or the CCK-1R selectivity, may be defined as IC50 (CCK-2R)/IC50 (CCK-1R).
A minimum of three biological replicates was measured for each test compound on separate assay plates.

[2] = target: T1, human cholecystokinin-2 receptor (CCK-2R); test: In vitro potency on CCK-2R, whole cell functional assay (IP1 accumulation, IP-One HTRF); assay type: cell-based
[3] = displacement of [125I]-CCK-8s, plasma membranes of 1321-N1 cells expressing CCK-2R, highest dose tested 1×10^7 pM, read-out: IC50 (CCK-2R)
[4] = 1321-N1 cells stably expressing CCK-2R, IP1 accumulation, highest dose tested 1×10^6 pM, read-out: EC50 (CCK-2R)

pIC50 [1, 3] | pEC50 [2, 4] | SMILES | pIC50 [1] | pEC50 [2]
6.32 | 6.96 | CCCC[C@H](NC(=O)[C@H](Cc1c[nH]c2ccccc12)NC(=O)CNC(=O)[C@H](CC(C)C)NC(=O)[C@H](Cc1ccc(OS(=O)(=O)O)cc1)NC(=O)[C@H](CC(=O)O)NC(=O)COCCOCCNC(=O)COCCOCCNC(=O)COCCOCCNC(=O)COCCOCCNC(=O)CC[C@H](NC(=O)CCCCCCCCCCCCCCCCC(=O)O)C(=O)O)C(=O)N(C)[C@H](CC(=O)O)C(=O)N(C)[C@@H](Cc1ccccc1)C(N)=O [Example 31, 2-[2-[2-[[2-[2-[2-[[2-[2-[2-[[2-[2-[2-[[(4S)-4-Carboxy-4-(17-carboxyheptadecanoylamino)butanoyl]amino]ethoxy]ethoxy]acetyl]amino]ethoxy]ethoxy]acetyl]amino]ethoxy]ethoxy]acetyl]amino]ethoxy]ethoxy]acetyl-Asp-sTyr-Leu-Gly-Trp-Nle-DMeAsp-MePhe-amide] |  | 
6.37 |  | CCCC[C@H](NC(=O)[C@H](Cc1c[nH]c2ccccc12)NC(=O)CNC(=O)[C@H](CC(C)C)NC(=O)[C@H](Cc1ccc(OS(=O)(=O)O)cc1)NC(=O)[C@H](CCC(=O)O)NC(=O)COCCOCCNC(=O)COCCOCCNC(=O)CC[C@H](NC(=O)CCCCCCCCCCCCCCCCCCC(=O)O)C(=O)O)C(=O)N(C)[C@H](CC(=O)O)C(=O)N(C)[C@@H](Cc1ccccc1)C(N)=O [Example 37, 2-[2-[2-[[2-[2-[2-[[(4S)-4-Carboxy-4-(19-carboxynonadecanoylamino)butanoyl]amino]ethoxy]ethoxy]acetyl]amino]ethoxy]ethoxy]acetyl-Glu-sTyr-Leu-Gly-Trp-Nle-DMeAsp-MePhe-amide] ({C20 diacid-γGlu-AEEA-AEEA}-E[sY]LGW[Nle][dNMeD][NMeF]-NH2) |  | 
6.47 |  | CCCC[C@H](NC(=O)[C@H](Cc1c[nH]c2ccccc12)NC(=O)CNC(=O)[C@@H](NC(=O)[C@H](Cc1ccc(OS(=O)(=O)O)cc1)NC(=O)[C@H](CC(=O)O)NC(=O)COCCOCCNC(=O)COCCOCCNC(=O)CC[C@H](NC(=O)CCCCCCCCCCCCCCCCC(=O)O)C(=O)O)[C@@H](C)CC)C(=O)N(C)[C@H](CC(=O)O)C(=O)N(C)[C@@H](Cc1ccccc1)C(N)=O [Example 47, 2-[2-[2-[[2-[2-[2-[[(4S)-4-Carboxy-4-(17-carboxyheptadecanoylamino)butanoyl]amino]ethoxy]ethoxy]acetyl]amino]ethoxy]ethoxy]acetyl-Asp-sTyr-Ile-Gly-Trp-Nle-DMeAsp-MePhe-amide] ({C18 diacid-γGlu-AEEA-AEEA}-D[sY]IGW[Nle][dNMeD][NMeF]-NH2) |  | 

Second part, the compound before the results:

SMILES | pIC50 [1, 3] | pEC50 [2, 4] | pIC50 [1] | pEC50 [2]
CC(C)C[C@H](NC(=O)[C@H](Cc1ccc(OS(=O)(=O)O)cc1)NC(=O)[C@H](CC(=O)O)NC(=O)COCCOCCNC(=O)COCCOCCNC(=O)CC[C@H](NC(=O)CCCCCCCCCCCCCCCCC(=O)O)C(=O)O)C(=O)NCC(=O)N[C@@H](Cc1c[nH]c2ccccc12)C(=O)N[C@@H](CC(C)C)C(=O)N(C)[C@H](CC(=O)O)C(=O)N(C)[C@@H](Cc1ccccc1)C(N)=O [Example 13, 2-[2-[2-[[2-[2-[2-[[(4S)-4-Carboxy-4-(17-carboxyheptadecanoylamino)butanoyl]amino]ethoxy]ethoxy]acetyl]amino]ethoxy]ethoxy]acetyl-Asp-sTyr-Leu-Gly-Trp-Leu-DMeAsp-MePhe-amide] |  |  | 6.38 | 7.10
CC(C)C[C@H](NC(=O)[C@H](Cc1ccc(OS(=O)(=O)O)cc1)NC(=O)[C@H](CC(=O)O)NC(=O)COCCOCCNC(=O)COCCOCCNC(=O)CC[C@H](NC(=O)CCCCCCCCCCCCCCCCC(=O)O)C(=O)O)C(=O)NCC(=O)N[C@@H](Cc1c[nH]c2ccccc12)C(=O)N1CCC[C@H]1C(=O)N(C)[C@H](CC(=O)O)C(=O)N(C)[C@@H](Cc1ccccc1)C(N)=O [Example 15, 2-[2-[2-[[2-[2-[2-[[(4S)-4-Carboxy-4-(17-carboxyheptadecanoylamino)butanoyl]amino]ethoxy]ethoxy]acetyl]amino]ethoxy]ethoxy]acetyl-Asp-sTyr-Leu-Gly-Trp-Pro-DMeAsp-MePhe-amide] ({C18 diacid-γGlu-AEEA-AEEA}-D[sY]LGWP[dNMeD][NMeF]-NH2) |  |  | 6.00 | 6.82
CCCC[C@H](NC(=O)[C@H](Cc1c[nH]c2ccccc12)NC(=O)CNC(=O)[C@H](CCCCN)NC(=O)[C@H](Cc1ccc(OS(=O)(=O)O)cc1)NC(=O)[C@H](CC(=O)O)NC(=O)COCCOCCNC(=O)COCCOCCNC(=O)CC[C@H](NC(=O)CCCCCCCCCCCCCCCCC(=O)O)C(=O)O)C(=O)N(C)[C@H](CC(=O)O)C(=O)N(C)[C@@H](Cc1ccccc1)C(N)=O [Example 16, 2-[2-[2-[[2-[2-[2-[[(4S)-4-Carboxy-4-(17-carboxyheptadecanoylamino)butanoyl]amino]ethoxy]ethoxy]acetyl]amino]ethoxy]ethoxy]acetyl-Asp-sTyr-Lys-Gly-Trp-Nle-DMeAsp-MePhe-amide] ({C18 diacid-γGlu-AEEA-AEEA}-D[sY]KGW[Nle][dNMeD][NMeF]-NH2) |  |  | < 5.00 | 
CCCC[C@H](NC(=O)[C@H](Cc1ccc(CS(=O)(=O)O)cc1)NC(=O)C[C@H](NC(=O)COCCOCCNC(=O)COCCOCCNC(=O)CC[C@H](NC(=O)CCCCCCCCCCCCCCCCC(=O)O)C(=O)O)C(=O)O)C(=O)NCC(=O)N[C@@H](Cc1c[nH]c2ccccc12)C(=O)N[C@@H](CCCC)C(=O)N(C)[C@H](CC(=O)O)C(=O)N(C)[C@@H](Cc1ccccc1)C(N)=O [Example 26, 2-[2-[2-[[2-[2-[2-[[(4S)-4-Carboxy-4-(17-carboxyheptadecanoylamino)butanoyl]amino]ethoxy]ethoxy]acetyl]amino]ethoxy]ethoxy]acetyl-bAsp-Phe(4-sulfomethyl)-Nle-Gly-Trp-Nle-DMeAsp-MePhe-amide] ({C18 diacid-γGlu-AEEA-AEEA-βAsp}-[Phe(4-CH2SO3H)][Nle]GW[Nle][dNMeD][NMeF]-NH2) | < 5.00 | < 6.00 |  | 
CCCC[C@H](NC(=O)[C@H](Cc1c[nH]c2ccccc12)NC(=O)CNC(=O)[C@H](CC(C)C)NC(=O)[C@H](Cc1ccc(OS(=O)(=O)O)cc1)NC(=O)[C@H](CC(=O)O)NC(=O)CC[C@H](NC(=O)COCCOCCNC(=O)COCCOCCNC(=O)CC[C@H](NC(=O)CCCCCCCCCCCCCCCCC(=O)O)C(=O)O)C(=O)O)C(=O)N(C)[C@H](CC(=O)O)C(=O)N(C)[C@@H](Cc1ccccc1)C(N)=O [Example 32, (4S)-4-Carboxy-4-[[2-[2-[2-[[2-[2-[2-[[(4S)-4-carboxy-4-(17-carboxyheptadecanoylamino)butanoyl]amino]ethoxy]ethoxy]acetyl]amino]ethoxy]ethoxy]acetyl]amino]butanoyl-Asp-sTyr-Leu-Gly-Trp-Nle-DMeAsp-MePhe-amide] | 6.42 | 7.34 |  | 
